Reference: the supplement of paper PMC8976852
± gives the standard deviation of the averaged measurements.

What was measured:
Assay in all cases: activity (1 - area under the dose-response curve within the screened range) (fraction); higher = more sensitive
Details in all cases: treatment time: 72 h
HCM-SANG-0266-C20 = system: HCM-SANG-0266-C20 (colorectal cancer organoid)
Method: (§1)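 Patient-derived cancer organoids (colorectal and oesophageal, HCM-SANG models) were grown for up to 6 months in 5% or 80% ECM (BME-2), then seeded in 384-well plates on an ECM layer and treated with 72 compounds for 3 days. Each compound used a 7-point half-log dilution series spanning a 1000-fold range, in technical triplicate and biological duplicate. Dose-response curves were fitted with a non-linear mixed effects model; fits with RMSE > 0.3 were removed, and activity = 1 - AUC within the screened dose range (0 = no activity, 1 = maximum).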

HCM-SANG-0291-C15 = system: HCM-SANG-0291-C15 (oesophageal cancer organoid)
Method: as §1

HCM-SANG-0270-C20 = system: HCM-SANG-0270-C20 (colorectal cancer organoid)
Method: as §1

HCM-SANG-0532-C20 = system: HCM-SANG-0532-C20 (colorectal cancer organoid)
Method: as §1

[1] = ECM percentage in culture prior to screening 5 %
[2] = ECM percentage in culture prior to screening 80 %

Structure (SMILES): Cc1nc(Nc2ncc(C(=O)Nc3c(C)cccc3Cl)s2)cc(N2CCN(CCO)CC2)n1 [Dasatinib]
- activity (HCM-SANG-0266-C20; [1]): 0.129 ± 0.069
- activity (HCM-SANG-0266-C20; [2]): 0.0743 ± 0.054
- activity (HCM-SANG-0291-C15; [1]): 0.0426 ± 0.021
- activity (HCM-SANG-0291-C15; [2]): 0.0463 ± 0.017
- activity (HCM-SANG-0270-C20; [1]): 0.0518 ± 0.018
- activity (HCM-SANG-0270-C20; [2]): 0.045 ± 0.018
- activity (HCM-SANG-0532-C20; [1]): 0.0937 ± 0.048
- activity (HCM-SANG-0532-C20; [2]): 0.0525 ± 0.021

Structure (SMILES): CC(=O)O[C@@]12CO[C@@H]1C[C@H](O)[C@@]1(C)C(=O)[C@H](O)C3=C(C)[C@@H](OC(=O)[C@H](O)[C@@H](NC(=O)OC(C)(C)C)c4ccccc4)C[C@@](O)([C@@H](OC(=O)c4ccccc4)[C@H]21)C3(C)C [Docetaxel]
- activity (HCM-SANG-0266-C20; [1]): 0.237 ± 0.033
- activity (HCM-SANG-0266-C20; [2]): 0.19 ± 0.031
- activity (HCM-SANG-0291-C15; [1]): 0.161 ± 0.058
- activity (HCM-SANG-0291-C15; [2]): 0.188 ± 0.05
- activity (HCM-SANG-0270-C20; [1]): 0.0873 ± 0.042
- activity (HCM-SANG-0270-C20; [2]): 0.14 ± 0.08
- activity (HCM-SANG-0532-C20; [1]): 0.128 ± 0.028
- activity (HCM-SANG-0532-C20; [2]): 0.158 ± 0.017

Structure (SMILES): Nc1ccccc1NC(=O)c1ccc(CNC(=O)OCc2cccnc2)cc1 [Entinostat]
- activity (HCM-SANG-0266-C20; [1]): 0.0903 ± 0.02
- activity (HCM-SANG-0266-C20; [2]): 0.0905 ± 0.023
- activity (HCM-SANG-0291-C15; [1]): 0.124 ± 0.045
- activity (HCM-SANG-0291-C15; [2]): 0.119 ± 0.047
- activity (HCM-SANG-0270-C20; [1]): 0.0723 ± 0.025
- activity (HCM-SANG-0270-C20; [2]): 0.0687 ± 0.041
- activity (HCM-SANG-0532-C20; [1]): 0.0795 ± 0.022
- activity (HCM-SANG-0532-C20; [2]): 0.102 ± 0.025

Structure (SMILES): c1cn2cc(-c3ccc4cn[nH]c4c3)nc(Nc3ccc(N4CCOCC4)cc3)c2n1 [Entospletinib]
- activity (HCM-SANG-0266-C20; [1]): 0.0298 ± 0.01
- activity (HCM-SANG-0266-C20; [2]): 0.0227 ± 0.0068
- activity (HCM-SANG-0291-C15; [1]): 0.0238 ± 0.0074
- activity (HCM-SANG-0291-C15; [2]): 0.0204 ± 0.0022
- activity (HCM-SANG-0270-C20; [1]): 0.0261 ± 0.0085
- activity (HCM-SANG-0270-C20; [2]): 0.0204 ± 0.0032
- activity (HCM-SANG-0532-C20; [1]): 0.0354 ± 0.019
- activity (HCM-SANG-0532-C20; [2]): 0.0256 ± 0.0054

Structure (SMILES): C#Cc1cccc(Nc2ncnc3cc(OCCOC)c(OCCOC)cc23)c1 [Erlotinib]
- activity (HCM-SANG-0266-C20; [1]): 0.171 ± 0.037
- activity (HCM-SANG-0266-C20; [2]): 0.129 ± 0.053
- activity (HCM-SANG-0291-C15; [1]): 0.204 ± 0.026
- activity (HCM-SANG-0291-C15; [2]): 0.198 ± 0.033
- activity (HCM-SANG-0270-C20; [1]): 0.148 ± 0.1
- activity (HCM-SANG-0270-C20; [2]): 0.121 ± 0.086
- activity (HCM-SANG-0532-C20; [1]): 0.207 ± 0.091
- activity (HCM-SANG-0532-C20; [2]): 0.209 ± 0.06

Structure (SMILES): C[C@]12CC[C@@H]3c4ccc(O)cc4C[C@@H](CCCCCCCCC[S+]([O-])CCCC(F)(F)C(F)(F)F)[C@H]3[C@@H]1CC[C@@H]2O (stereo not given in full) [Fulvestrant]
- activity (HCM-SANG-0266-C20; [1]): 0.0414 ± 0.019
- activity (HCM-SANG-0266-C20; [2]): 0.0246 ± 0.0074
- activity (HCM-SANG-0291-C15; [1]): 0.0285 ± 0.013
- activity (HCM-SANG-0291-C15; [2]): 0.0212 ± 0.0031
- activity (HCM-SANG-0270-C20; [1]): 0.0292 ± 0.0081
- activity (HCM-SANG-0270-C20; [2]): 0.0268 ± 0.015
- activity (HCM-SANG-0532-C20; [1]): 0.022 ± 0.0021
- activity (HCM-SANG-0532-C20; [2]): 0.0273 ± 0.0072

Structure (SMILES): Nc1ccn([C@@H]2O[C@H](CO)[C@@H](O)C2(F)F)c(=O)n1 [Gemcitabine]
- activity (HCM-SANG-0266-C20; [1]): 0.624 ± 0.097
- activity (HCM-SANG-0266-C20; [2]): 0.465 ± 0.13
- activity (HCM-SANG-0291-C15; [1]): 0.813 ± 0.021
- activity (HCM-SANG-0291-C15; [2]): 0.801 ± 0.049
- activity (HCM-SANG-0270-C20; [1]): 0.337 ± 0.13
- activity (HCM-SANG-0270-C20; [2]): 0.234 ± 0.17
- activity (HCM-SANG-0532-C20; [1]): 0.247 ± 0.042
- activity (HCM-SANG-0532-C20; [2]): 0.423 ± 0.04

Structure (SMILES): CCNC(=O)C[C@@H]1N=C(c2ccc(Cl)cc2)c2cc(OC)ccc2-n2c(C)nnc21 [I-BET-762]
- activity (HCM-SANG-0266-C20; [1]): 0.121 ± 0.041
- activity (HCM-SANG-0266-C20; [2]): 0.0782 ± 0.04
- activity (HCM-SANG-0291-C15; [1]): 0.0724 ± 0.037
- activity (HCM-SANG-0291-C15; [2]): 0.068 ± 0.015
- activity (HCM-SANG-0270-C20; [1]): 0.0441 ± 0.019
- activity (HCM-SANG-0270-C20; [2]): 0.0339 ± 0.019
- activity (HCM-SANG-0532-C20; [1]): 0.0448 ± 0.021
- activity (HCM-SANG-0532-C20; [2]): 0.0841 ± 0.035

Structure (SMILES): CCc1c2c(nc3ccc(OC(=O)N4CCC(N5CCCCC5)CC4)cc13)-c1cc3c(c(=O)n1C2)COC(=O)[C@]3(O)CC [Irinotecan]
- activity (HCM-SANG-0266-C20; [1]): 0.0899 ± 0.035
- activity (HCM-SANG-0266-C20; [2]): 0.0683 ± 0.022
- activity (HCM-SANG-0291-C15; [1]): 0.233 ± 0.019
- activity (HCM-SANG-0291-C15; [2]): 0.18 ± 0.015
- activity (HCM-SANG-0270-C20; [1]): 0.0887 ± 0.063
- activity (HCM-SANG-0270-C20; [2]): 0.079 ± 0.039
- activity (HCM-SANG-0532-C20; [1]): 0.1 ± 0.035
- activity (HCM-SANG-0532-C20; [2]): 0.0793 ± 0.037

Structure (SMILES): Cc1cc(-c2ncc(CC(=O)Nc3ccc(-c4cnccn4)cn3)cc2C)ccn1 [LGK974]
- activity (HCM-SANG-0266-C20; [1]): 0.0334 ± 0.014
- activity (HCM-SANG-0266-C20; [2]): 0.0329 ± 0.017
- activity (HCM-SANG-0291-C15; [1]): 0.0263 ± 0.0099
- activity (HCM-SANG-0291-C15; [2]): 0.0251 ± 0.0087
- activity (HCM-SANG-0270-C20; [1]): 0.0409 ± 0.013
- activity (HCM-SANG-0270-C20; [2]): 0.0485 ± 0.035
- activity (HCM-SANG-0532-C20; [1]): 0.0269 ± 0.005
- activity (HCM-SANG-0532-C20; [2]): 0.0397 ± 0.009

Structure (SMILES): CS(=O)(=O)CCNCc1ccc(-c2ccc3ncnc(Nc4ccc(OCc5cccc(F)c5)c(Cl)c4)c3c2)o1 [Lapatinib]
- activity (HCM-SANG-0266-C20; [1]): 0.21 ± 0.071
- activity (HCM-SANG-0266-C20; [2]): 0.132 ± 0.082
- activity (HCM-SANG-0291-C15; [1]): 0.207 ± 0.045
- activity (HCM-SANG-0291-C15; [2]): 0.189 ± 0.022
- activity (HCM-SANG-0270-C20; [1]): 0.157 ± 0.057
- activity (HCM-SANG-0270-C20; [2]): 0.106 ± 0.073
- activity (HCM-SANG-0532-C20; [1]): 0.143 ± 0.069
- activity (HCM-SANG-0532-C20; [2]): 0.205 ± 0.052

Structure (SMILES): C[C@]1(O)C[C@@H](c2nc(-c3ccc4ccc(-c5ccccc5)nc4c3)c3c(N)nccn32)C1 [Linsitinib]
- activity (HCM-SANG-0266-C20; [1]): 0.0577 ± 0.033
- activity (HCM-SANG-0266-C20; [2]): 0.0295 ± 0.017
- activity (HCM-SANG-0291-C15; [1]): 0.0216 ± 0.0028
- activity (HCM-SANG-0291-C15; [2]): 0.0248 ± 0.013
- activity (HCM-SANG-0270-C20; [1]): 0.0341 ± 0.014
- activity (HCM-SANG-0270-C20; [2]): 0.0245 ± 0.0092
- activity (HCM-SANG-0532-C20; [1]): 0.033 ± 0.015
- activity (HCM-SANG-0532-C20; [2]): 0.0378 ± 0.015

Structure (SMILES): CCNC(=O)c1noc(-c2cc(C(C)C)c(O)cc2O)c1-c1ccc(CN2CCOCC2)cc1 [Luminespib]
- activity (HCM-SANG-0266-C20; [1]): 0.319 ± 0.046
- activity (HCM-SANG-0266-C20; [2]): 0.322 ± 0.024
- activity (HCM-SANG-0291-C15; [1]): 0.0294 ± 0.011
- activity (HCM-SANG-0291-C15; [2]): 0.0466 ± 0.038
- activity (HCM-SANG-0270-C20; [1]): 0.111 ± 0.061
- activity (HCM-SANG-0270-C20; [2]): 0.0622 ± 0.041
- activity (HCM-SANG-0532-C20; [1]): 0.338 ± 0.087
- activity (HCM-SANG-0532-C20; [2]): 0.291 ± 0.014

Structure (SMILES): C=CCn1c(=O)c2cnc(Nc3ccc(N4CCN(C)CC4)cc3)nc2n1-c1cccc(C(C)(C)O)n1 [MK-1775]
- activity (HCM-SANG-0266-C20; [1]): 0.407 ± 0.048
- activity (HCM-SANG-0266-C20; [2]): 0.348 ± 0.044
- activity (HCM-SANG-0291-C15; [1]): 0.257 ± 0.036
- activity (HCM-SANG-0291-C15; [2]): 0.24 ± 0.051
- activity (HCM-SANG-0270-C20; [1]): 0.255 ± 0.042
- activity (HCM-SANG-0270-C20; [2]): 0.205 ± 0.11
- activity (HCM-SANG-0532-C20; [1]): 0.156 ± 0.019
- activity (HCM-SANG-0532-C20; [2]): 0.19 ± 0.027

Structure (SMILES): NC1(c2ccc(-c3nc4ccn5c(=O)[nH]nc5c4cc3-c3ccccc3)cc2)CCC1 [MK-2206]
- activity (HCM-SANG-0266-C20; [1]): 0.223 ± 0.074
- activity (HCM-SANG-0266-C20; [2]): 0.152 ± 0.095
- activity (HCM-SANG-0291-C15; [1]): 0.086 ± 0.048
- activity (HCM-SANG-0291-C15; [2]): 0.0594 ± 0.025
- activity (HCM-SANG-0270-C20; [1]): 0.076 ± 0.014
- activity (HCM-SANG-0270-C20; [2]): 0.0487 ± 0.04
- activity (HCM-SANG-0532-C20; [1]): 0.158 ± 0.11
- activity (HCM-SANG-0532-C20; [2]): 0.168 ± 0.034
